Positions of bridges follow the written chain, without caps; N, C: chain ends. Non-standard residues stand in square brackets, D forms with d. Residues, ends and D or L forms follow the SMILES beside them. Nle = CCCC[C@H](N)C(=O)O
target: Urokinase plasminogen activator surface receptor (Homo sapiens, UniProt Q03405); experiment: Inhibitory activity against human Urokinase plasminogen activator receptor (uPAR) was determined
Sequence (Q03405 whole entry): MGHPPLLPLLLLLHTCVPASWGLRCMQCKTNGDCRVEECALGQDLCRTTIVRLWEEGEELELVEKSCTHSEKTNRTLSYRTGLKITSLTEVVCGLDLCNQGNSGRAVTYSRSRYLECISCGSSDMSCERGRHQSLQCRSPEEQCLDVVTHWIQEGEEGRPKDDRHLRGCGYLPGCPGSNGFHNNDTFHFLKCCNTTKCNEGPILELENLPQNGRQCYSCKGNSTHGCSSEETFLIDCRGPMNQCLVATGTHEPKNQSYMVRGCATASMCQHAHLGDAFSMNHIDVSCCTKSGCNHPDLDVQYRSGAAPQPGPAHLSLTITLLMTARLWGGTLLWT

Compound	IC50
CCCC[C@@H]1NC(=O)[C@H](CC(N)=O)NC(=O)[C@H](N)CSSC[C@@H](C(=O)N[C@@H](Cc2c[nH]c3ccccc23)C(=O)O)NC(=O)[C@H]([C@@H](C)CC)NC(=O)[C@H](CC(N)=O)NC(=O)[C@H](CO)NC(=O)[C@H](Cc2ccccc2)NC(=O)[C@H](Cc2ccc(O)cc2)NC1=O (H-[dC]N[Nle]YFSNICW-OH; disulfide 1-9)	0.06 µM
CC[C@H](C)[C@@H]1NC(=O)[C@@H](CC(N)=O)NC(=O)[C@H](CO)NC(=O)[C@H](Cc2ccccc2)NC(=O)[C@H](Cc2ccc(O)cc2)NC(=O)[C@H](CCCCN)NC(=O)[C@H](CC(N)=O)NC(=O)[C@@H](N)CSSC[C@@H](C(=O)N[C@@H](Cc2c[nH]c3ccccc23)C(=O)O)NC1=O	> 30 µM
CC[C@H](C)[C@@H]1NC(=O)[C@H](CC(N)=O)NC(=O)[C@H](CO)NC(=O)[C@H](Cc2ccccc2)NC(=O)[C@H](Cc2cccc3ccccc23)NC(=O)[C@H](CCCCN)NC(=O)[C@H](CC(N)=O)NC(=O)[C@H](N)CSSC[C@@H](C(=O)N[C@@H](Cc2c[nH]c3ccccc23)C(=O)O)NC1=O	0.05 µM
CC[C@H](C)[C@@H]1NC(=O)[C@H](CC(N)=O)NC(=O)[C@H](CO)NC(=O)[C@H](Cc2ccccc2)NC(=O)[C@H](Cc2ccc(O)cc2)NC(=O)[C@H](CCCCN)NC(=O)[C@@H](CC(N)=O)NC(=O)[C@@H](N)CSSC[C@@H](C(=O)N[C@@H](Cc2c[nH]c3ccccc23)C(=O)O)NC1=O	> 30 µM
CC[C@H](C)[C@@H]1NC(=O)[C@H](CC(N)=O)NC(=O)[C@H](CO)NC(=O)[C@H](Cc2ccccc2)NC(=O)[C@H](Cc2ccc(O)cc2)NC(=O)[C@H](CCCCN)NC(=O)[C@H](CC(N)=O)NC(=O)[C@H](CO)NC(=O)[C@H](C(C)C)NC(=O)[C@@H](N)CSSC[C@@H](C(=O)O)NC(=O)[C@H](Cc2c[nH]c3ccccc23)NC(=O)[C@H](Cc2c[nH]cn2)NC1=O	0.7 µM
CC[C@H](C)[C@@H]1NC(=O)[C@H](CC(N)=O)NC(=O)[C@H](CO)NC(=O)[C@H](Cc2ccccc2)NC(=O)[C@H](Cc2ccc(O)cc2)NC(=O)[C@H](CCCCN)NC(=O)[C@H](CC(N)=O)NC(=O)[C@H](CO)NC(=O)[C@H](C(C)C)NC(=O)[C@H](N)CSSC[C@@H](C(=O)O)NC(=O)[C@H](Cc2c[nH]c3ccccc23)NC(=O)[C@H](Cc2c[nH]cn2)NC1=O	0.2 µM
CC[C@H](C)[C@@H]1NC(=O)[C@H](CC(N)=O)NC(=O)[C@H](CO)NC(=O)[C@H](Cc2ccccc2)NC(=O)[C@H](Cc2ccc(O)cc2)NC(=O)[C@H](CCCCN)NC(=O)[C@H](CC(N)=O)NC(=O)[C@@H](N)CSSC[C@@H](C(=O)N[C@@H](Cc2c[nH]c3ccccc23)C(=O)O)NC1=O	0.9 µM
CC[C@H](C)[C@@H]1NC(=O)[C@H](CC(N)=O)NC(=O)[C@H](CO)NC(=O)[C@H](Cc2ccccc2)NC(=O)[C@H](Cc2ccc3ccccc3c2)NC(=O)[C@H](CCCCN)NC(=O)[C@H](CC(N)=O)NC(=O)[C@H](N)CSSC[C@@H](C(=O)N[C@@H](Cc2c[nH]c3ccccc23)C(=O)O)NC1=O	0.08 µM
CC[C@H](C)[C@@H]1NC(=O)[C@H](CC(N)=O)NC(=O)[C@H](CO)NC(=O)[C@H](Cc2ccccc2)NC(=O)[C@H](Cc2ccc(O)cc2)NC(=O)[C@H](CCCCN)NC(=O)[C@H](CC(N)=O)NC(=O)[C@H](N)CSSC[C@@H](C(=O)N[C@@H](Cc2c[nH]c3ccccc23)C(=O)O)NC1=O	0.04 µM
CC[C@H](C)[C@@H]1NC(=O)[C@H](CC(N)=O)NC(=O)[C@@H](CO)NC(=O)[C@H](Cc2ccccc2)NC(=O)[C@H](Cc2ccc(O)cc2)NC(=O)[C@H](CCCCN)NC(=O)[C@H](CC(N)=O)NC(=O)[C@@H](N)CSSC[C@@H](C(=O)N[C@@H](Cc2c[nH]c3ccccc23)C(=O)O)NC1=O	> 30 µM
CC[C@H](C)[C@@H]1NC(=O)[C@H](CC(N)=O)NC(=O)[C@H](CO)NC(=O)[C@H](Cc2ccccc2)NC(=O)[C@H](Cc2ccc(O)cc2)NC(=O)[C@@H](CCCCN)NC(=O)[C@H](CC(N)=O)NC(=O)[C@@H](N)CSSC[C@@H](C(=O)N[C@@H](Cc2c[nH]c3ccccc23)C(=O)O)NC1=O	> 30 µM
